The record followed here is ChEMBL document CHEMBL2390885, “Discovery of pyrido[2,3-d]pyrimidine-based inhibitors of HCV NS5A” (Bioorg Med Chem Lett, 2013).

Assay [1] deals with Hepatitis C virus. As to the kind of experiment: Antiviral activity against Hepatitis C virus genotype 1a by replicon assay. The format is functional, organism-based, Hepacivirus hominis. Particulars: subtype 1a. For orientation: In antiviral work, replicon cells carry a viral genome segment that copies itself.
In assay [2] the test system is Hepatitis C virus. Briefly: Antiviral activity against Hepatitis C virus genotype 1b by replicon assay. Type of assay: functional, organism-based, Hepacivirus hominis.

Regarding `CC(C)c1ccc2c(Nc3cc(C(=O)N[C@H]4CCc5ccccc54)ccc3Sc3ccc(N)cc3)ncnc2n1`, the EC50 (usually the concentration that produces a half-maximal response) came out at 451 nM in the assay with Hepatitis C virus [1] and 54 nM in the assay with Hepatitis C virus [2].

With `CC(C)c1ccc2c(Nc3cc(C(=O)NC(C)c4cccc(F)c4)ccc3Sc3ccc(N)cc3)ncnc2n1` (stereo unspecified), the EC50 turned out to be 92 nM with Hepatitis C virus [1] and 15 nM in the assay with Hepatitis C virus [2].

For the compound `CC(C)c1ccc2c(Nc3cc(C(=O)N[C@H](CCO)c4ccccc4)ccc3Sc3ccc(N)cc3)ncnc2n1`, the EC50 was found to be 3270 nM in the assay with Hepatitis C virus [1] and 347 nM in the assay with Hepatitis C virus [2].

`CC(C)c1ccc2c(Nc3cc(C(=O)NC(C)c4cccc(Br)c4)ccc3Sc3ccc(N)cc3)ncnc2n1` (stereo unspecified): the EC50 stood at 33 nM in the assay with Hepatitis C virus [1] and 9 nM with Hepatitis C virus [2].

For `CC(C)c1ccc2c(Nc3cc(C(=O)NC(C)c4ccc(C(F)(F)F)cc4)ccc3Sc3ccc(N)cc3)ncnc2n1` (stereo unspecified), the EC50 in the assay with Hepatitis C virus [1] is 66 nM; in the assay on Hepatitis C virus [2], 41 nM.

Regarding `C[C@H](NC(=O)c1ccc(Sc2ccc(N)cc2)c(Nc2ncnc3ncccc23)c1)c1ccccc1`, the EC50 worked out at 7890 nM in the assay on Hepatitis C virus [1] and 6250 nM in the assay with Hepatitis C virus [2].

With `CC(C)c1ccc2c(Nc3cc(C(=O)NC(C)c4cccs4)ccc3Sc3ccc(N)cc3)ncnc2n1` (stereo unspecified), the EC50 in the assay on Hepatitis C virus [1] was found to be 378 nM; in the assay with Hepatitis C virus [2], 159 nM.

Consider `CC(C)c1ccc2c(Nc3cc(C(=O)N[C@H](CO)c4ccccc4)ccc3Sc3ccc(N)cc3)ncnc2n1`, for which the results for the EC50 in the assay on Hepatitis C virus [1] and in the assay with Hepatitis C virus [2] were 3030 nM and 237 nM, respectively.

For the compound `COc1cccc([C@H](C)NC(=O)c2ccc(Sc3ccc(N)cc3)c(Nc3ncnc4nc(C(C)C)ccc34)c2)c1`, the concentration giving a half-maximal response (EC50) in the assay on Hepatitis C virus [1] came out at 24 nM; in the assay with Hepatitis C virus [2], 4 nM.

In the case of `CC(C)c1ccc2c(Nc3cc(C(=O)N[C@](C)(CO)c4ccccc4)ccc3Sc3ccc(N)cc3)ncnc2n1`, the results for the EC50 with Hepatitis C virus [1] and in the assay with Hepatitis C virus [2] were 1200 nM and 60 nM, respectively.

Turning to `CC(C)c1ccc2c(Nc3cc(C(=O)N[C@@H](C)c4ccc(F)cc4)ccc3Sc3ccc(N)cc3)ncnc2n1`, the figures for the EC50 in the assay with Hepatitis C virus [1] and in the assay on Hepatitis C virus [2] were 10 nM and 2 nM, respectively.

Turning to `CC(C)c1ccc2c(Nc3cc(C(=O)NC(C)(C)c4ccccc4)ccc3Sc3ccc(N)cc3)ncnc2n1`, the EC50 in the assay on Hepatitis C virus [1] is 284 nM; with Hepatitis C virus [2] it was 181 nM.

With `CC(C)c1ccc2c(Nc3cc(C(=O)NC(C)c4cccnc4)ccc3Sc3ccc(N)cc3)ncnc2n1` (stereo unspecified), the EC50 amounted to 1420 nM in the assay on Hepatitis C virus [1] and 377 nM with Hepatitis C virus [2].

For the compound `CC(C)c1ccc2c(Nc3cc(C(=O)N[C@@H](CO)c4ccccc4)ccc3Sc3ccc(N)cc3)ncnc2n1`, the EC50 in the assay with Hepatitis C virus [1] is 4570 nM; in the assay with Hepatitis C virus [2] it was 314 nM.

Turning to `CC(C)c1ccc2c(Nc3cc(C(=O)N[C@@H](C)c4ccc5ccccc5c4)ccc3Sc3ccc(N)cc3)ncnc2n1`, the EC50 in the assay with Hepatitis C virus [1] came to 340 nM; in the assay with Hepatitis C virus [2], 30 nM.

For the compound `CC(C)c1ccc2c(Nc3cc(C(=O)NC(C)c4ccncc4)ccc3Sc3ccc(N)cc3)ncnc2n1` (stereo unspecified), the EC50 in the assay on Hepatitis C virus [1] was 1170 nM; in the assay on Hepatitis C virus [2] it was 331 nM.

Take `CC(C)c1ccc2c(Nc3cc(C(=O)N[C@@H](C)c4ccccc4)ccc3Sc3ccc(NS(C)(=O)=O)cc3)ncnc2n1`: the EC50 with Hepatitis C virus [1] is 349 nM; with Hepatitis C virus [2] it was 51 nM.

For the compound `Cc1ccccc1C(C)NC(=O)c1ccc(Sc2ccc(N)cc2)c(Nc2ncnc3nc(C(C)C)ccc23)c1` (stereo unspecified), the EC50 in the assay on Hepatitis C virus [1] is 300 nM; in the assay with Hepatitis C virus [2], 30 nM.

On to `COc1ccc([C@H](C)NC(=O)c2ccc(Sc3ccc(N)cc3)c(Nc3ncnc4nc(C(C)C)ccc34)c2)cc1`, for which the EC50 with Hepatitis C virus [1] amounted to 89 nM; with Hepatitis C virus [2], 52 nM.

For the compound `COc1ccccc1C(C)NC(=O)c1ccc(Sc2ccc(N)cc2)c(Nc2ncnc3nc(C(C)C)ccc23)c1` (stereo unspecified), the EC50 in the assay on Hepatitis C virus [1] was determined as 610 nM; in the assay with Hepatitis C virus [2], 40 nM.

As for `CC(C)c1ccc2c(Nc3cc(C(=O)N[C@H](C)c4ccccc4)ccc3Sc3ccc(N)cc3)ncnc2n1`, the EC50 with Hepatitis C virus [1] stood at 180 nM; in the assay on Hepatitis C virus [2], 100 nM.

Turning to `CC(C)c1ccc2c(Nc3cc(C(=O)N[C@@H](C)c4ccccc4C(F)(F)F)ccc3Sc3ccc(N)cc3)ncnc2n1`, the EC50 worked out at 370 nM with Hepatitis C virus [1] and 20 nM in the assay on Hepatitis C virus [2].

Consider `CC(C)c1ccc2c(Nc3cc(C(=O)N[C@@H](C)c4cccc(C(F)(F)F)c4)ccc3Sc3ccc(N)cc3)ncnc2n1`, for which the figures for the EC50 in the assay on Hepatitis C virus [1] and in the assay with Hepatitis C virus [2] were 210 nM and 21 nM, respectively.
